# Data as given in ChEMBL document CHEMBL1201861, “Genomics of Drug Sensitity in Cancer screening data, Wellcome Trust Sanger Institute”.
# pIC50: −log10 of the molar value.
# How the values were obtained:
# Type in all cases: functional, cell-based
# [1] = system: DBTRG-05MG; test: cells; conditions: Homo sapiens;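 note: cell viability assay measuring growth inhibition of human DBTRG-05MG cells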
# Description: SANGER: Inhibition of human DBTRG-05MG cell growth in a cell viability assay.
# [2] = system: DV-90; test: cells; conditions: Homo sapiens;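 note: Read-out is a viability assay, with IC50 reflecting the drop in DV-90 cell growth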
# Description: SANGER: Inhibition of human DV-90 cell growth in a cell viability assay.
# [3] = system: Daoy; test: cells; conditions: Homo sapiens;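 note: daoy cell growth inhibition, read out as cell viability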
# Description: SANGER: Inhibition of human Daoy cell growth in a cell viability assay.
# [4] = system: EVSA-T; test: cells; conditions: Homo sapiens;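 note: growth inhibition of EVSA-T cells, read out with a cell viability assay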
# Description: SANGER: Inhibition of human EVSA-T cell growth in a cell viability assay.
# [5] = system: EW-7; test: SANGER: Inhibition of human EW-7 cell growth in a cell viability assay.
# [6] = system: GCT; test: cells; conditions: Homo sapiens;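 note: GCT cell line proliferation inhibition, read out with a cell viability assay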
# Description: SANGER: Inhibition of human GCT cell growth in a cell viability assay.
# [7] = system: GDM-1; test: cells; conditions: Homo sapiens;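 note: cell viability readout used to measure growth inhibition of human GDM-1 cells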
# Description: SANGER: Inhibition of human GDM-1 cell growth in a cell viability assay.
# [8] = system: HCC1419; test: cells; conditions: Homo sapiens;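 note: growth inhibition of human HCC1419 cells, read out as cell viability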
# Description: SANGER: Inhibition of human HCC1419 cell growth in a cell viability assay.
# [9] = system: HCC1569; test: cells; conditions: Homo sapiens;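 note: growth inhibition of human HCC1569 cells, read out with a cell viability assay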
# Description: SANGER: Inhibition of human HCC1569 cell growth in a cell viability assay.
# [10] = system: HGC-27; test: cells; conditions: Homo sapiens;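 note: growth inhibition of human HGC-27 cells, read out in a cell viability assay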
# Description: SANGER: Inhibition of human HGC-27 cell growth in a cell viability assay.
# [11] = system: HOP-92; test: cells; conditions: Homo sapiens;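 note: cell viability readout, with IC50 reflecting inhibition of HOP-92 cell growth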
# Description: SANGER: Inhibition of human HOP-92 cell growth in a cell viability assay.
# [12] = system: HSC-3; test: cells; conditions: Homo sapiens
# Description: SANGER: Inhibition of human HSC-3 cell growth in a cell viability assay.
# [13] = system: HT-3; test: cells; conditions: Homo sapiens;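 note: growth inhibition measured with a cell viability readout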
# Description: SANGER: Inhibition of human HT-3 cell growth in a cell viability assay.
# [14] = system: HT55; test: cells; conditions: Homo sapiens;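 note: cell viability readout measuring growth inhibition of human HT55 cells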
# Description: SANGER: Inhibition of human HT55 cell growth in a cell viability assay.
# [15] = system: JIYOYE; test: cells; conditions: Homo sapiens
# Description: SANGER: Inhibition of human JiyoyeP-2003 cell growth in a cell viability assay.
# [16] = system: K052; test: cells; conditions: Homo sapiens;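 note: Read-out from a cell viability assay, IC50 reflecting suppression of K052 cell growth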
# Description: SANGER: Inhibition of human K052 cell growth in a cell viability assay.
# [17] = system: KU-19-19; test: cells; conditions: Homo sapiens
# Description: SANGER: Inhibition of human KU-19-19 cell growth in a cell viability assay.
# [18] = system: KYSE-410; test: cells; conditions: Homo sapiens;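 note: growth inhibition of KYSE-410 cells, measured through a cell viability readout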
# Description: SANGER: Inhibition of human KYSE-410 cell growth in a cell viability assay.
# [19] = system: KYSE-510; test: cells; conditions: Homo sapiens;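 note: cell viability readout used to measure how strongly growth of the cell line is suppressed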
# Description: SANGER: Inhibition of human KYSE-510 cell growth in a cell viability assay.
# [20] = system: KYSE-520 cell line; test: cells; conditions: Homo sapiens;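 note: growth inhibition of human KYSE-520 cells, read out with a viability assay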
# Description: SANGER: Inhibition of human KYSE-520 cell growth in a cell viability assay.
# [21] = system: L-540; test: cells; conditions: Homo sapiens;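 note: growth inhibition of the human L-540 cell line, read out with a viability assay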
# Description: SANGER: Inhibition of human L-540 cell growth in a cell viability assay.
# [22] = system: LOUCY; test: cells; conditions: Homo sapiens;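 note: growth inhibition of human LOUCY cells, read out with a cell viability assay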
# Description: SANGER: Inhibition of human LOUCY cell growth in a cell viability assay.
# [23] = system: MC-IXC; test: cells; conditions: Homo sapiens;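 note: growth inhibition of MC-IXC cells, read out with a cell viability assay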
# Description: SANGER: Inhibition of human MC-IXC cell growth in a cell viability assay.
# [24] = system: MG-63; test: cells; conditions: Homo sapiens;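 note: growth inhibition of human MG-63 cells, read out with a cell viability assay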
# Description: SANGER: Inhibition of human MG-63 cell growth in a cell viability assay.
# [25] = system: MKN-1; test: cells; conditions: Homo sapiens;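 note: growth inhibition of human MKN1 cells, read out by a cell viability measurement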
# Description: SANGER: Inhibition of human MKN1 cell growth in a cell viability assay.
# [26] = system: NCCIT; test: SANGER: Inhibition of human NCCIT cell growth in a cell viability assay.
# [27] = system: NCI-H1522; test: cells; conditions: Homo sapiens;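 note: growth inhibition of NCI-H1522 cells, read out with a cell viability assay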
# Description: SANGER: Inhibition of human NCI-H1522 cell growth in a cell viability assay.
# [28] = system: NCI-H187; test: cells; conditions: Homo sapiens;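 note: growth inhibition of NCI-H187 cells, read out as cell viability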
# Description: SANGER: Inhibition of human NCI-H187 cell growth in a cell viability assay.
# [29] = system: NCI-H1993; test: cells; conditions: Homo sapiens;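 note: growth inhibition of the cancer cell line, assessed with a cell viability assay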
# Description: SANGER: Inhibition of human NCI-H1993 cell growth in a cell viability assay.
# [30] = system: NCI-H2009; test: cells; conditions: Homo sapiens;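 note: cell viability assay measuring inhibition of NCI-H2009 cell growth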
# Description: SANGER: Inhibition of human NCI-H2009 cell growth in a cell viability assay.
# [31] = system: NCI-H2227; test: cells; conditions: Homo sapiens;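 note: growth inhibition of the human cell line, read out with a cell viability assay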
# Description: SANGER: Inhibition of human NCI-H2227 cell growth in a cell viability assay.
# [32] = system: NCI-H292; test: cells; conditions: Homo sapiens;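 note: growth inhibition of NCI-H292 cells, read out with a cell viability assay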
# Description: SANGER: Inhibition of human NCI-H292 cell growth in a cell viability assay.
# [33] = system: NCI-H520; test: cells; conditions: Homo sapiens;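 note: growth inhibition of NCI-H520 cells, measured by a cell viability assay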
# Description: SANGER: Inhibition of human NCI-H520 cell growth in a cell viability assay.
# [34] = system: NCI-H524; test: cells; conditions: Homo sapiens;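 note: growth inhibition of human NCI-H524 cells, read out through a cell viability assay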
# Description: SANGER: Inhibition of human NCI-H524 cell growth in a cell viability assay.
# [35] = system: SNU-16; test: cells; conditions: Homo sapiens;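 note: growth inhibition of human SNU-16 cells, determined with a cell viability readout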
# Description: SANGER: Inhibition of human NCI-SNU-16 cell growth in a cell viability assay.
# [36] = system: OE33; test: cells; conditions: Homo sapiens;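 note: growth inhibition of human OE33 cells, measured by a cell viability assay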
# Description: SANGER: Inhibition of human OE33 cell growth in a cell viability assay.
# [37] = system: SCC-3; test: cells; conditions: Homo sapiens;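 note: cell viability assay measuring inhibition of SCC-3 cell growth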
# Description: SANGER: Inhibition of human SCC-3 cell growth in a cell viability assay.
# [38] = system: SCC-4; test: cells; conditions: Homo sapiens;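 note: growth inhibition of human SCC-4 cells, read out as cell viability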
# Description: SANGER: Inhibition of human SCC-4 cell growth in a cell viability assay.
# [39] = system: SF-295; test: cells; conditions: Homo sapiens;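 note: growth inhibition of SF-295 cells, read out with a cell viability assay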
# Description: SANGER: Inhibition of human SF295 cell growth in a cell viability assay.
# [40] = system: SJRH30; test: cells; conditions: Homo sapiens;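 note: growth inhibition of human SJRH30 cells, read out with a cell viability assay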
# Description: SANGER: Inhibition of human SJRH30 cell growth in a cell viability assay.
# [41] = system: SNU-387; test: cells; conditions: Homo sapiens
# Description: SANGER: Inhibition of human SNU-387 cell growth in a cell viability assay.
# [42] = system: SNU-C1; test: cells; conditions: Homo sapiens;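 note: growth inhibition of SNU-C1 human cells, read out by a cell viability assay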
# Description: SANGER: Inhibition of human SNU-C1 cell growth in a cell viability assay.
# [43] = system: ST486; test: SANGER: Inhibition of human ST486 cell growth in a cell viability assay.
# [44] = system: SUP-T1; test: cells; conditions: Homo sapiens;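 note: growth inhibition of human SUP-T1 cells, read out as cell viability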
# Description: SANGER: Inhibition of human SUP-T1 cell growth in a cell viability assay.
# [45] = system: SW1417; test: cells; conditions: Homo sapiens;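 note: growth inhibition of human SW1417 cells, read out with a cell viability assay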
# Description: SANGER: Inhibition of human SW1417 cell growth in a cell viability assay.
# [46] = system: SW48; test: cells; conditions: Homo sapiens;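 note: growth inhibition of SW48 cells, read out with a cell viability assay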
# Description: SANGER: Inhibition of human SW48 cell growth in a cell viability assay.
# [47] = system: SW780; test: cells; conditions: Homo sapiens;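 note: growth inhibition of the cells, read out with a cell viability assay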
# Description: SANGER: Inhibition of human SW780 cell growth in a cell viability assay.
# [48] = system: SAOS-2; test: cells; conditions: Homo sapiens;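 note: growth inhibition of human Saos-2 cells determined by a cell viability assay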
# Description: SANGER: Inhibition of human Saos-2 cell growth in a cell viability assay.
# [49] = system: T-24; test: cells; conditions: Homo sapiens;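 note: growth inhibition of T-24 cells, read out with a cell viability assay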
# Description: SANGER: Inhibition of human T-24 cell growth in a cell viability assay.
# [50] = system: 639-V; test: cells; conditions: Homo sapiens;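 note: growth inhibition of 639-V cells, read out with a cell viability assay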
# Description: SANGER: Inhibition of human 639-V cell growth in a cell viability assay.
# [51] = system: A2780; test: cells; conditions: Homo sapiens;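 note: growth inhibition of A2780 cells, read out with a cell viability assay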
# Description: SANGER: Inhibition of human A2780 cell growth in a cell viability assay.
# [52] = system: A-427; test: cells; conditions: Homo sapiens;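 note: growth inhibition of human A-427 cells, read out by a cell viability assay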
# Description: SANGER: Inhibition of human A427 cell growth in a cell viability assay.
# [53] = system: AN3-CA; test: cells; conditions: Homo sapiens;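 note: growth inhibition of human AN3-CA cells measured by a cell viability assay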
# Description: SANGER: Inhibition of human AN3-CA cell growth in a cell viability assay.
# [54] = system: BC1 cell line; test: SANGER: Inhibition of human BC-1 cell growth in a cell viability assay.
# [55] = system: BC-3; test: cells; conditions: Homo sapiens;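 note: cell viability assay measuring growth inhibition of human BC-3 cells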
# Description: SANGER: Inhibition of human BC-3 cell growth in a cell viability assay.
# [56] = system: C32; test: cells; conditions: Homo sapiens;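 note: cell viability assay, with IC50 reflecting inhibition of C32 cell growth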
# Description: SANGER: Inhibition of human C32 cell growth in a cell viability assay.
# [57] = system: CAL-72; test: cells; conditions: Homo sapiens;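 note: cell viability assay measuring inhibition of proliferation in the CAL-72 cell line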
# Description: SANGER: Inhibition of human CAL-72 cell growth in a cell viability assay.
# [58] = system: TT; test: cells; conditions: Homo sapiens
# Description: SANGER: Inhibition of human TT cell growth in a cell viability assay.
# [59] = system: TYK-nu; test: cells; conditions: Homo sapiens;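 note: growth inhibition of human TYK-nu cells, read out by a cell viability assay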
# Description: SANGER: Inhibition of human TYK-nu cell growth in a cell viability assay.
# [60] = system: U-118-MG; test: cells; conditions: Homo sapiens
# Description: SANGER: Inhibition of human U-118-MG cell growth in a cell viability assay.
# [61] = system: VM-CUB-1; test: cells; conditions: Homo sapiens
# Description: SANGER: Inhibition of human VM-CUB-1 cell growth in a cell viability assay.
# [62] = system: COLO-678; test: cells; conditions: Homo sapiens
# Description: SANGER: Inhibition of human COLO-678 cell growth in a cell viability assay.
# [63] = system: D-566MG; test: cells; conditions: Homo sapiens
# [64] = system: ECC10; test: cells; conditions: Homo sapiens
# Description: SANGER: Inhibition of human ECC10 cell growth in a cell viability assay.
# [65] = system: NBsusSR; test: cells; conditions: Homo sapiens
# Description: SANGER: Inhibition of human NBsusSR cell growth in a cell viability assay.
# [66] = system: YH-13; test: cells; conditions: Homo sapiens
# Description: SANGER: Inhibition of human YH-13 cell growth in a cell viability assay.
compound,measurement,setting,value
CC(C)=CC[C@@H](O)C1=CC(=O)c2c(O)ccc(O)c2C1=O [SHIKONIN],pIC50,[1],6.21
same,pIC50,[2],< 4.80
same,pIC50,[3],6.80
same,pIC50,[4],6.39
same,pIC50,[5],5.89
same,pIC50,[6],5.94
same,pIC50,[7],5.57
same,pIC50,[8],5.77
same,pIC50,[9],6.09
same,pIC50,[10],6.64
same,pIC50,[11],5.70
same,pIC50,[12],6.47
same,pIC50,[13],6.02
same,pIC50,[14],5.77
same,pIC50,[15],5.86
same,pIC50,[16],5.96
same,pIC50,[17],5.50
same,pIC50,[18],6.12
same,pIC50,[19],6.60
same,pIC50,[20],6.22
same,pIC50,[21],5.31
same,pIC50,[22],6.23
same,pIC50,[23],6.41
same,pIC50,[24],6.59
same,pIC50,[25],6.63
same,pIC50,[26],6.29
same,pIC50,[27],6.28
same,pIC50,[28],5.63
same,pIC50,[29],5.53
same,pIC50,[30],7.69
same,pIC50,[31],5.31
same,pIC50,[32],6.07
same,pIC50,[33],5.87
same,pIC50,[34],< 4.80
same,pIC50,[35],< 4.80
same,pIC50,[36],5.74
same,pIC50,[37],6.00
same,pIC50,[38],6.36
same,pIC50,[39],6.18
same,pIC50,[40],6.43
same,pIC50,[41],5.97
same,pIC50,[42],< 4.80
same,pIC50,[43],> 7.20
same,pIC50,[44],5.74
same,pIC50,[45],6.08
same,pIC50,[46],5.90
same,pIC50,[47],6.39
same,pIC50,[48],5.63
same,pIC50,[49],5.61
same,pIC50,[50],6.58
same,pIC50,[51],5.59
same,pIC50,[52],7.74
same,pIC50,[53],7.10
same,pIC50,[54],5.57
same,pIC50,[55],6.03
same,pIC50,[56],5.57
same,pIC50,[57],5.99
same,pIC50,[58],5.77
same,pIC50,[59],5.94
same,pIC50,[60],6.07
same,pIC50,[61],5.99
same,pIC50,[62],5.79
C/C(O)=C(\C#N)C(=O)Nc1cc(Br)ccc1Br,pIC50,[1],< 4.80
same,pIC50,[2],< 4.80
same,pIC50,[3],< 4.80
same,pIC50,[4],< 4.80
same,pIC50,[5],< 4.80
same,pIC50,[6],< 4.80
same,pIC50,[7],< 4.80
same,pIC50,[8],< 4.80
same,pIC50,[9],< 4.80
same,pIC50,[10],< 4.80
same,pIC50,[11],< 4.80
same,pIC50,[12],< 4.80
same,pIC50,[13],< 4.80
same,pIC50,[14],< 4.80
same,pIC50,[15],< 4.80
same,pIC50,[16],< 4.80
same,pIC50,[17],< 4.80
same,pIC50,[18],< 4.80
same,pIC50,[19],< 4.80
same,pIC50,[20],< 4.80
same,pIC50,[21],< 4.80
same,pIC50,[23],< 4.80
same,pIC50,[24],< 4.80
same,pIC50,[25],< 4.80
same,pIC50,[26],< 4.80
same,pIC50,[27],< 4.80
same,pIC50,[28],< 4.80
same,pIC50,[29],< 4.80
same,pIC50,[30],< 4.80
same,pIC50,[31],< 4.80
same,pIC50,[32],< 4.80
same,pIC50,[33],< 4.80
same,pIC50,[34],< 4.80
same,pIC50,[35],< 4.80
same,pIC50,[36],< 4.80
same,pIC50,[37],< 4.80
same,pIC50,[38],< 4.80
same,pIC50,[39],< 4.80
same,pIC50,[40],< 4.80
same,pIC50,[41],< 4.80
same,pIC50,[42],< 4.80
same,pIC50,[43],< 4.80
same,pIC50,[44],< 4.80
same,pIC50,[45],< 4.80
same,pIC50,[46],< 4.80
same,pIC50,[47],< 4.80
same,pIC50,[48],< 4.80
same,pIC50,[49],< 4.80
same,pIC50,[50],< 4.80
same,pIC50,[51],< 4.80
same,pIC50,[52],< 4.80
same,pIC50,[53],< 4.80
same,pIC50,[54],< 4.80
same,pIC50,[55],< 4.80
same,pIC50,[56],< 4.80
same,pIC50,[57],< 4.80
same,pIC50,[58],< 4.80
same,pIC50,[59],< 4.80
same,pIC50,[60],< 4.80
same,pIC50,[61],< 4.80
same,pIC50,[62],< 4.80
CC[C@]1(O)C[C@@H]2CN(CCc3c([nH]c4ccccc34)[C@@](C(=O)OC)(c3cc4c(cc3OC)N(C)[C@H]3[C@@](O)(C(=O)OC)[C@H](OC(C)=O)[C@]5(CC)C=CCN6CC[C@]43[C@@H]65)C2)C1 [VINBLASTINE],pIC50,[63],8.69
same,pIC50,[1],< 7.00
same,pIC50,[3],8.51
same,pIC50,[64],7.67
same,pIC50,[6],8.33
same,pIC50,[8],7.24
same,pIC50,[9],7.03
same,pIC50,[10],8.99
same,pIC50,[11],7.59
same,pIC50,[12],8.36
same,pIC50,[13],7.43
same,pIC50,[14],< 7.00
same,pIC50,[17],7.36
same,pIC50,[18],8.03
same,pIC50,[19],8.23
same,pIC50,[20],7.32
same,pIC50,[23],8.53
same,pIC50,[24],7.85
same,pIC50,[25],8.00
same,pIC50,[65],8.49
same,pIC50,[29],< 7.00
same,pIC50,[30],7.27
same,pIC50,[32],8.52
same,pIC50,[33],7.52
same,pIC50,[36],7.54
same,pIC50,[38],8.62
same,pIC50,[39],7.44
same,pIC50,[40],7.23
same,pIC50,[41],7.94
same,pIC50,[45],< 7.00
same,pIC50,[46],8.16
same,pIC50,[47],8.63
same,pIC50,[48],7.49
same,pIC50,[49],8.29
same,pIC50,[50],8.25
same,pIC50,[51],8.34
same,pIC50,[52],7.90
same,pIC50,[53],8.01
same,pIC50,[56],< 7.00
same,pIC50,[57],< 7.00
same,pIC50,[59],7.92
same,pIC50,[60],7.35
same,pIC50,[61],8.37
same,pIC50,[66],8.43
same,pIC50,[62],< 7.00
CCCS(=O)(=O)Nc1ccc(F)c(C(=O)c2c[nH]c3ncc(Cl)cc23)c1F [PLX-4720],pIC50,[63],< 5.00
same,pIC50,[1],5.34
same,pIC50,[3],< 5.00
same,pIC50,[64],< 5.00
same,pIC50,[6],5.06
same,pIC50,[8],< 5.00
same,pIC50,[9],< 5.00
same,pIC50,[10],< 5.00
same,pIC50,[11],< 5.00
same,pIC50,[12],5.09
same,pIC50,[13],< 5.00
same,pIC50,[14],< 5.00
same,pIC50,[17],< 5.00
same,pIC50,[18],< 5.00
same,pIC50,[19],< 5.00
same,pIC50,[20],< 5.00
same,pIC50,[23],< 5.00
same,pIC50,[24],< 5.00
same,pIC50,[25],< 5.00
same,pIC50,[65],< 5.00
same,pIC50,[29],< 5.00
same,pIC50,[30],< 5.00
same,pIC50,[32],< 5.00
same,pIC50,[33],< 5.00
same,pIC50,[36],< 5.00
same,pIC50,[38],< 5.00
same,pIC50,[39],< 5.00
same,pIC50,[40],< 5.00
same,pIC50,[41],< 5.00
same,pIC50,[45],< 5.00
same,pIC50,[46],< 5.00
same,pIC50,[47],< 5.00
same,pIC50,[48],< 5.00
same,pIC50,[49],< 5.00
same,pIC50,[50],< 5.00
same,pIC50,[51],< 5.00
same,pIC50,[52],< 5.00
same,pIC50,[53],< 5.00
same,pIC50,[56],6.82
same,pIC50,[57],5.19
same,pIC50,[59],< 5.00
same,pIC50,[60],< 5.00
same,pIC50,[61],< 5.00
same,pIC50,[66],< 5.00
same,pIC50,[62],< 5.00
